Assay results published in patent US20120016010A1, “RNA Interference Mediated Inhibition of BTB and CNC Homology 1, Basic Leucine Zipper Transcription Factor 1 (BACH1) Gene Expression Using Short Interfering Nucleic Acid (siNA)” (Merck Sharp & Dohme Corp, priority 2009, published 2012).

What was measured:
Type in all cases: cell-based
Bach1 mRNA [1] = assay: Dose-response curve of Bach1 mRNA knock-down in human A549 cells; conditions: three experiments, mean ± standard deviation; for IC50: Table 4, Bach1 mRNA knock-down; for Maximum % KD in DRC: Table 4, Bach1 mRNA, 12 concentrations 0.083 fM to 30 nM
Protocol: All calculations of IC50s were performed using SigmaPlot 10.0 software. The data were analyzed using the sigmoidal dose-response (variable slope) equation for simple ligand binding. In all of the calculations of the % knock-down, the calculation was made relative to the normalized level of expression of the gene of interest in the samples treated with the non-targeting control (Ctrl siNA) unless otherwise indicated. Summary data, as to potency and efficacy for Bach1 mRNA knock-down in human cells for certain siNA molecules, is presented in Table 4. Cells for the experiments were treated with 12 concentrations of siNA ranging from 0.083 fM to 30 nM. All of the data is presented as % knockdown of Bach1 normalized against the expression of GAPDH mRNA expression level. Then the data was determined as a % knockdown relative to the non-targeting control siNA.

Bach1 mRNA [2] = assay: Initial screen: Bach1 mRNA knock-down in mouse NIH 3T3 cells (96-well transfection, quantitative RT-PCR); conditions: mouse NIH3T3 cells, n = 2, 24 hrs post-transfection, protocol 10 nM siNA
HMOX-1 mRNA = HMOX-1 mRNA increase in response to Bach1 siNA in human A549 cells; conditions: 24 hrs post-transfection, mean ± SD
Protocol: A series of probes and primers were used to detect the various mRNA transcripts of the genes of Bach1, HMOX-1, and GAPDH in mouse and human cell lines. The assays were performed on an ABI 7900 instrument, according to the manufacturer's instructions. A TaqMan Gene Expression Master Mix (provided in the Cells-to-CTT™, Applied Biosystems, Cat # 4399002) was used. The PCR reactions were carried out at 50° C. for 2 min, 95° C. for 20 min followed by 40 cycles at 95° C. for 15 secs and 60° C. for 1 min
All calculations of IC50s were performed using SigmaPlot 10.0 software. The data were analyzed using the sigmoidal dose-response (variable slope) equation for simple ligand binding. In all of the calculations of the % knock-down, the calculation was made relative to the normalized level of expression of the gene of interest in the samples treated with the non-targeting control (Ctrl siNA) unless otherwise indicated.
For the statistical measures of significance for the HMOX-1 mRNA increase in response to Bach1 siNA treatment, a two-tailed Student's t-test on the dCt values for wells treated with the non-targeting control siNA compared with the dCt values for wells treated with the highest concentration of each respective active siNA, was performed.
Various siNAs were also evaluated for their potential to knock-down Bach1 protein. As no validated reagents were available to directly track changes in protein expression, this was done by assessing the increase in HMOX-1 mRNA in response to increasing doses of the active Bach1 siNAs.
The siNAs were tested at a single time point post-transfection (24 hrs). This was the time point at which the Bach1 mRNA levels had previously been determined. The non-targeting control siNA was also tested on each plate of samples and was found, across the six plates to show a maximum of 29±12% increase in the level of HMOX-1.
The comparison of the maximum percentage increase in HMOX-1 and EC50 and the maximum percentage decrease of Bach1 and IC50 are shown in Table 6. Table 6 also includes the measure of statistical significance for the increase in HMOX-1 mRNA levels in response to treatment with the respective Bach1 siNA.

Substance	IC50 (Bach1 mRNA [1])	Maximum % KD in DRC (Bach1 mRNA [1])	% KD (Bach1 mRNA [2])	EC50 (HMOX-1 mRNA)	Maximum % Hmox-1 Increase in DRC (HMOX-1 mRNA)
29957-DC (sense GCAGUUACUUCCACUCAAGTT; antisense CUUGAGUGGAAGUAACUGCUU; inverted abasic end caps, TT overhangs, modified nucleotides, further chemistry not given here)	0.039 ± 0.013 nM	87 ± 0.9%	42.4 ± 1.2%	33.6 ± 20 pM	213 ± 29%
29956-DC (sense GUCUGAGUGUCCGUGGUUATT; antisense UAACCACGGACACUCAGACUU; inverted abasic caps (B), 2'-modified nucleotides, further chemistry not given here)	0.028 ± 0.018 nM	80 ± 7.7%	−14.5 ± 8.4%	30.9 ± 19.9 pM	308 ± 87%
29961-DC (sense CUACACUGCUAAACUGAUUTT; antisense AAUCAGUUUAGCAGUGUAGUU; inverted abasic end caps, TT overhangs, modified nucleotides, further chemistry not given here)	0.01 ± 0.004 nM	89 ± 2.2%	−23.5 ± 4.6%	10.4 ± 10 pM	262 ± 87%
29947-DC (sense GGAAUCCUGCUUUCAGUUUTT; antisense AAACUGAAAGCAGGAUUCCUU; inverted abasic caps (B), 2'-modified nucleotides, further chemistry not given here)	0.027 ± 0.005 nM	86 ± 0.5%	46 ± 5.8%	37.7 ± 21.5 pM	187 ± 71%
29964-DC (sense GAUUUGCAGGUGAUGUUAATT; antisense UUAACAUCACCUGCAAAUCUU; inverted abasic end caps, TT overhangs, modified nucleotides, further chemistry not given here)	0.027 ± 0.015 nM	87 ± 2.8%	19.6 ± 3.9%	21.8 ± 15.5 pM	240 ± 30%
29984-DC (sense GUUAAAGGAUUUGAACCUUTT; antisense AAGGUUCAAAUCCUUUAACUU; inverted abasic end caps, TT overhangs, modified nucleotides, further chemistry not given here)	–	–	50.5 ± 0.8%	–	–
29988-DC (sense AUUUGAACCUUUAAUUCAGTT; antisense CUGAAUUAAAGGUUCAAAUUU; inverted abasic end caps, TT overhangs, modified nucleotides, further chemistry not given here)	0.063 ± 0.019 nM	84 ± 0.9%	71.3 ± 8.9%	38.2 ± 29.8 pM	190 ± 62%
